# Patent US20170045520A1, “METHOD FOR PREDICTING RESPONSE TO THERAPY FOR CANCER” (National University of Singapore, priority 2014, published 2017)
# Like-named read-outs stand apart in the source and are kept apart here.
# System: WBP2 overexpressing cancer cells
# Test: Drug sensitivity of cells overexpressing WT ITCH versus C830A or E855K mutant ITCH to Wnt inhibitors
# Format: cell-based
# Description: This was indeed the case for up to 0.0001 μM and 5 μM for FH535 and C59, respectively, but above these doses, the distinction was lost probably as a result of non-specific cytotoxicity (FIGS. 8 and 9). This implies that ITCH inactivating mutations could be used to predict for response to Wnt inhibitors especially in cancers that are dependent on WBP2.
# [1] = WT ITCH vs C830A or E855K mutant ITCH overexpression, FIGS. 8 and 9
Compound,"dose up to which the difference in sensitivity between WT ITCH and mutant ITCH cells held (above it the distinction was lost, probably non-specific cytotoxicity) [µM]",sensitivity of cells to the Wnt inhibitor when WT ITCH is overexpressed (low WBP2) compared to when C830A or E855K mutant is overexpressed (high WBP2) [1],"dose up to which the difference in sensitivity between WT ITCH and mutant ITCH cells held (above it the distinction was lost, probably non-specific cytotoxicity) [1]"
Cc1cc(-c2ccc(CC(=O)Nc3ccc(-c4cccnc4)cc3)cc2)ccn1 [C59],≤ 5,less sensitive,–
Cc1cc([N+](=O)[O-])ccc1NS(=O)(=O)c1cc(Cl)ccc1Cl [FH535],–,less sensitive,up to 0.0001 μM
